# Data published in patent publication US20150216870A1, “Combination of PI3K Inhibitor and C-Met Inhibitor” (Novartis AG, priority 2012, published 2015).
# Entries after “also recorded” stand apart in the source; their conditions may differ.
# Experiments:
# H4 = experiment: CellTiter-Glo cell viability dose matrix in H4 glioblastoma cells; format: cell-based, human; conditions: H4 (PTEN mutant, HGF expressing)
# Experimental: (§1) The PI3K inhibitor COMPOUND C and the c-MET receptor tyrosine kinase inhibitor 2-fluoro-N-methyl-4-[7-quinolin-6-yl-methyl)-imidazo[1,2-b][1,2,4]triazin-2yl]benzamide are evaluated in combination in glioblastoma tumor models. COMPOUND C (10 mM) and 2-fluoro-N-methyl-4-[7-quinolin-6-yl-methyl)-imidazo[1,2-b][1,2,4]triazin-2yl]benzamide (10 mM) are dissolved in DMSO, and are stored in aliquots at −20° C.
# (§2) Human Glioblastoma cell lines, U-87 MG (PTEN mutant and HGF expressing line), H4 (PTEN mutant and HGF expressing line), A172 (PTEN mutant line with low HGF expression level) and LN-229 (PTEN wildtype and HGF low) are purchased from American Type Cell Collection and are maintained in a humidified incubator at 37° C. in 5% CO2 in recommended media. All four cell lines express detected MET at the mRNA level.
# (§3) The cells are passaged twice a week and the medium is changed every 2 to 3 days. […]
# (§4) Cell viability is determined by measuring cellular ATP content using the CellTiter-Glo® (CTG) luminescent cell viability assay (Promega). […] An equal volume of the CTG reagents is added to each well at the end of the compound treatment and luminescence is recorded on an Envision plate reader (Perkin Elmer). Reduced and enhanced luminescent signal values (responses) are calculated relative to untreated (control) cells. […]
# [1] = tested on: NCI-H1993 human non-small cell lung carcinoma xenograft; experiment: NCI-H1993 xenograft tumor growth inhibition and tumor growth delay; format: in vivo, athymic nude mice; conditions: c-Met inhibitor 17.7 mg/kg p.o. b.i.d. to end
# Excerpt: In this experiment, the NCI-H1993 human non-small cell lung carcinoma xenograft model is used to assess the anti-tumor efficacy of the PI3K inhibitor COMPOUND D and c-Met inhibitor 2-fluoro-N-methyl-4-[7-quinolin-6-yl-methyl)-imidazo[1,2-b][1,2,4]triazin-2yl]benzamide as single agents or in combination. NCI-H1993 tumor cells obtained from the American Type Culture Collection (ATCC) are derived from a lymph node metastasis of a patient having a stage 3A lung adenocarcinoma and a history of smoking.
# Female athymic nude mice (Crl:NU (Ncr)-Foxn1^nu, Charles River) are 8 weeks old, and have a body weight (BW) range of 16.1-26.2 g, on D1 of the study. The animals are fed ad libitum water (reverse osmosis, 1 ppm CI) and NIH 31 Modified and Irradiated Lab Diet® consisting of 18.0% crude protein, 5.0% crude fat, and 5.0% crude fiber. The mice are housed on irradiated Enrich-O'cobs™ Laboratory Animal Bedding in static microisolators on a 12-hour light cycle at 20-22° C. (68-72° F.) and 40-60% humidity.
# The NCI-H1993 tumor line is obtained from the American Type Culture Collection and maintained at DRS_NC in RPMI-1640 medium containing 100 unites/penicillin G sodium, 100 µg/mL streptomycin sulfate, 25 µg/mL gentamicin, 10% fetal bovine serum, and 2 mM glutamine. The tumor cells are cultured in tissue culture flasks in a humidified incubator at 37° C. in an atmosphere of 5% CO2 and 95% air.
# The tumor cells used for implementation are harvested during log phase growth and resuspended in cold PBS containing 50% Matrigel™ (BD Biosciences). Each mouse is injected subcutaneously in the right flank with 1×10^7 cells (0.2 mL cell suspension). Tumors are calipered in two dimensions to monitor growth as their mean volume approached the desired 200-250 mm^3 range. Tumor size, in mm^3, was calculated from: Tumor Volume=(width^2×length)/2, where width and length (in mm) are measurements of the tumor. Tumor weight can be estimated with the assumption that 1 mg is equivalent to 1 mm^3 of tumor volume. Fourteen days after tumor cell implantation, on D1 of the study, mice with individual tumor volumes of 172-256 mm^3 are sorted into groups of ten mice, with group mean tumor volumes of 206-215 mm^3.
# The c-Met inhibitor 2-fluoro-N-methyl-4-[7-quinolin-6-yl-methyl)-imidazo[1,2-b][1,2,4]triazin-2yl]benzamide (HCl salt, 84.98% free base) is stored at 4° C. and is added to a volume of deionized water equal to 1/2 of the final volume and sonicated until dissolved to obtain a uniform 2× suspension. An equal volume of 0.5% methylcellulose: 0.1% Tween® 80 is added to provide a 1.77 mg/mL solution with final vehicle concentrations of 0.25% methylcellulose and 0.05% Tween® 80 in deionized water (Vehicle 1). Fresh solutions are prepared once daily for the […]. dosing and stored at room temperature until the a.m. dosing.
# COMPOUND D is suspended at 3.0 mg/mL in 0.5% methylcellulose in deionized water. The vehicle is added in portions equal to 1/3 of the final volume. The suspension is vortexed after each addition, and then finally probe sonicated on ice to prepare a homogeneous white suspension. A fresh suspension is prepared weekly, stored at 4° C., and re-suspended prior to dosing.
# The c-MET inhibitor and the vehicle is each administered via oral gavage (p.o.) twice daily for the duration of the study (b.i.d. to end). COMPOUND D is administered via oral gavage (p.o.) once daily for the duration of the study (qd to end). In combination therapies, COMPOUND D is dosed within 30 minutes after the c-Met inhibitor. In all groups, the dosing volume of 10 mL/kg (0.2 mL/20 g mouse) is scaled to the weight of each animal as determined on the day of dosing, except on weekends when the previous BW is carried forward.
# The groups of nude mice (n=10/group) are treated as follows. Group 1 receive Vehicle 1 and Vehicle 2 and serve as controls for the study. […] Group 3 receives 30 mg/kg COMPOUND D monotherapy once daily for the duration of the study (qd to end).
# [2] = Toxicity (body weight, deaths) in NCI-H1993 xenograft study; format: in vivo; conditions: c-Met inhibitor 17.7 mg/kg p.o. b.i.d. to end
# Experimental: Animals are weighed on Days 1-5, on each treatment day (except weekends), and twice weekly thereafter, until the end of the study. The maximum group mean body weight (BW) loss is determined for the interval between D1 and D20 as well as for the entire study. Group mean BW nadir determinations exclude measurements taken after more than 50% of the assessable mice in the group have exited the study, and also exclude any animal that was classified as a non-treatment related (NTR) death during the study. Acceptable toxicity for the maximum tolerated dose (MTD) is defined as a group mean BW loss of less than 15% during the test, and not more than one TR death among ten animals. Any animal with BW losses exceeding 15% for three consecutive measurements, or with a BW loss exceeding 20% for one measurement, are euthanized, and classified as a TR death unless it was the first death in the group. A death is classified as NTR if there was no evidence that the death is related to treatment side effects and the death occurs more than 14 days after dosing ended. NTR deaths are categorized as NTRa (due to accident or error), NTRu (due to unknown causes), or NTRm (necropsy-confirmed tumor dissemination by invasion and/or metastasis). To conserve animals while providing maximum information, the first death in a group was classified as NTRu; such an NTR death was to be reclassified as TR if two subsequent TR deaths are recorded in the same group.
# U-87 MG = experiment: CellTiter-Glo cell viability dose matrix in U-87 MG glioblastoma cells; format: cell-based, human; conditions: U87 MG (PTEN mutant, HGF expressing)
# Experimental: as §1, §2, §3, §4
# A172 = experiment: CellTiter-Glo cell viability dose matrix in A172 glioblastoma cells; format: cell-based, human; conditions: A172 (PTEN mutant, low HGF)
# Experimental: as §1, §2, §3, §4
compound,measurement,setting,value
CNC(=O)c1ccc(-c2cnc3ncc(Cc4ccc5ncccc5c4)n3n2)cc1F [c-Met inhibitor],anti-proliferative activity (single agent),H4,only moderate activities
same,% TGD,[1],97%
same,D71 survivors,[1],four
same,T-C,[1],24.2 days
same,T/C or T/T0,[1]; D20,15%
same,Median TTE,[1]; endpoint 600 mm3,49.2 days
same,overall survival (in words),[1]; logrank vs control,significantly extends survival; also recorded: significant survival extension
same,D20 tumor growth inhibition (in words),[1]; vs control Group 1,does not achieve significant inhibition relative to control; also recorded: non-significant D20 tumor growth inhibition
same,Deaths: NTR,[2],(1 NTR)
same,deaths due to individual body weight losses,[2],One
same,anti-proliferative activity (single agent),U-87 MG,only moderate activities
same,anti-proliferative activity (single agent),A172,completely inactive
